# Laboratory results as given in US20250277012A1 (Protagonist Therapeutics, Inc., priority 2021, published 2025).
# Like-named read-outs stand apart in the source and are kept apart here. Starred links: 1 amine or outer side, 2 acyl side, 3 side chain; linkers in the order of their positions; H or OH if unused. Positions of bridges follow the written chain, without caps; N, C: chain ends. Non-standard residues stand in square brackets, D forms with d. Residues, ends and D or L forms follow the SMILES beside them. Groups on a side chain read outwards from the residue. *: point of attachment. X1 = C[N+](C)(CCNC(=O)CCCCCCCCCCCCCCCCC(=O)O)CC(=O)*; Ala(quinolin-3-yl) = N[C@@H](Cc1cnc2ccccc2c1)C(=O)O; C18 diacid = O=C(O)CCCCCCCCCCCCCCCCC(=O)*; Dip = N[C@H](C(=O)O)C(c1ccccc1)c1ccccc1; γGlu = O=C(O)[C@H](CCC(=O)[*:2])N[*:1]; NHCH2CHPh2 = c1ccc(C(CN*)c2ccccc2)cc1; NMeY = CN[C@@H](Cc1ccc(O)cc1)C(=O)O; Palmitoyl = CCCCCCCCCCCCCCCC(=O)*; NMeF = CN[C@@H](Cc1ccccc1)C(=O)O; 3Pal = N[C@@H](Cc1cccnc1)C(=O)O; β3hF = N[C@H](CC(=O)O)Cc1ccccc1; Aad = N[C@@H](CCCC(=O)O)C(=O)O; NMeK = CN[C@@H](CCCCN)C(=O)O; Tle = CC(C)(C)[C@H](N)C(=O)O; Isovaleryl = CC(C)CC(=O)*; hCys = N[C@@H](CCS)C(=O)O; Dab = NCC[C@H](N)C(=O)O; Dap = NC[C@H](N)C(=O)O; AEEA = NCCOCCOCC(=O)O; Ahx = NCCCCCC(=O)O
# Columns and labels:
# ferroportin [1] = biological target: T1, ferroportin (Homo sapiens, UniProt Q9NP59); test: FPN activity assay: ferroportin-GFP internalization/degradation in HEK293 cells; format: cell-based; design: expressed in transfected cells; conditions: read-out: FPN IC50
# T1 sequence (Q9NP59 1-571): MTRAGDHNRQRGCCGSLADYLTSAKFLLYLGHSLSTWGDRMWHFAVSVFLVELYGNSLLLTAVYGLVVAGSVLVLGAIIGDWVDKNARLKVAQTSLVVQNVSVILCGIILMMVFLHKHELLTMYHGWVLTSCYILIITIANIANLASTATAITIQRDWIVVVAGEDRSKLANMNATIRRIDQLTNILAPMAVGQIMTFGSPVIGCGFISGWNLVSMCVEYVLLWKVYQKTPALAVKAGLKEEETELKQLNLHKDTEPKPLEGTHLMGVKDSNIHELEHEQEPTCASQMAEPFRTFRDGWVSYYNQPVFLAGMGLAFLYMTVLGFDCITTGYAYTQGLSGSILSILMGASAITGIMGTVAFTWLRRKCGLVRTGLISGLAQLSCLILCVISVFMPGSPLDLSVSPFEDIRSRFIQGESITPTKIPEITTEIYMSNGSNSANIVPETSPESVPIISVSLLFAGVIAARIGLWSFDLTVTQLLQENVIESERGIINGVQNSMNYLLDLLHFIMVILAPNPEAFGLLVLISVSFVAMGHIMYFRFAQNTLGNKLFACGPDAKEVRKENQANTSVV
# Method: Following internalization, the ferroporin protein is degraded.
# A retro inverse peptide is a peptide with a reversed sequence in all D amino acids. An example is that Hy-Glu-Thr-His-NH2 becomes Hy-DHis-DThr-DGlu-NH2. The EC50 of these reference compounds for ferroportin internalization/degradation was determined according to the FPN activity assay described above. These peptides served as control standards.
# ferroportin [2] = biological target: T1, ferroportin; test: T47D cell-based ferroportin internalization assay in presence of mouse serum albumin (MSA); design: a human breast carcinoma adherent cell line which endogenously expresses ferroportin; host or cells: T47D
# Outline: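 Peptide potency for inducing ferroportin internalization was measured in T47D cells in the presence of serum albumin. Cells grown in RPMI with fetal bovine serum were seeded in 96-well plates at 80-100 k cells per well in 100 ul and rested overnight. Dilution series of test peptides were preincubated 30 min at room temperature, then added to the cells after the medium was aspirated.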
# [3] = ferroportin-GFP internalization/degradation, HEK293 cells, Table 6E
# [4] = T47D internalization assay in presence of mouse serum albumin (MSA), Table 6E
# [5] = ferroportin-GFP HEK293 cells, at least 18 hours
# [6] = T47D cells, 0.5% mouse serum albumin, 1 hr incubation
# [7] = Table 6E, T47D internalization assay with MSA
DC50 (ferroportin [1]; [3]) [nM],IC50 (ferroportin [2]; [4]) [nM],Structure (SMILES),also measured
10 to 100,10 to 100,CC(C)CC(=O)N[C@@H](CCC(=O)O)C(=O)N[C@H](C(=O)N[C@@H](Cc1c[nH]cn1)C(=O)N[C@H](C(=O)N1CCC[C@H]1C(=O)N[C@H]1CSSCC[C@@H](C(=O)N(C)[C@@H](CCCCNC(=O)COCCOCCNC(=O)COCCOCCNC(=O)[C@H](CN)NC(=O)CCCCCCCCCCCCCCCCC(=O)O)C(=O)N[C@H](CC(=O)N[C@H](CCCCN)C(N)=O)Cc2ccccc2)NC1=O)C(c1ccccc1)c1ccccc1)[C@@H](C)O [compound 270] (Isovaleryl-ETH[Dip]PC[hCys][NMeK]([AEEA-AEEA-Dap-C18 diacid])[β3hF][dK]-NH2; disulfide 6-7),–
10 to 100,10 to 100,CC(C)CC(=O)N[C@@H](CCC(=O)O)C(=O)N[C@H](C(=O)N[C@@H](Cc1c[nH]cn1)C(=O)N[C@H](C(=O)N1CCC[C@H]1C(=O)N[C@H]1CSSC[C@@H](C(=O)N(C)[C@@H](CCCCNC(=O)COCCOCCNC(=O)COCCOCCNC(=O)[C@H](CN)NC(=O)CCCCCCCCCCCCCCCCC(=O)O)C(=O)N[C@H](CC(=O)N[C@H](CCCCN)C(=O)N(C)[C@@H](Cc2ccc(O)cc2)C(N)=O)Cc2ccccc2)NC1=O)C(c1ccccc1)c1ccccc1)[C@@H](C)O [compound 259] (Isovaleryl-ETH[Dip]PCC[NMeK]([AEEA-AEEA-Dap-C18 diacid])[β3hF][dK][NMeY]-NH2; disulfide 6-7),–
10 to 100,10 to 100,CC(C)CC(=O)N[C@@H](CCC(=O)O)C(=O)N[C@H](C(=O)N[C@@H](Cc1c[nH]cn1)C(=O)N[C@H](C(=O)N1CCC[C@H]1C(=O)N[C@H]1CSSC[C@@H](C(=O)N(C)[C@@H](CCCCNC(=O)COCCOCCNC(=O)COCCOCCNC(=O)[C@H](CN)NC(=O)CCCCCCCCCCCCCCCCC(=O)O)C(=O)N[C@H](CC(=O)N[C@H](CCCCN)C(=O)N(C)[C@@H](Cc2ccccc2)C(N)=O)Cc2ccccc2)NC1=O)C(c1ccccc1)c1ccccc1)[C@@H](C)O [compound 263] (Isovaleryl-ETH[Dip]PCC[NMeK]([AEEA-AEEA-Dap-C18 diacid])[β3hF][dK][NMeF]-NH2; disulfide 6-7),–
10 to 100,10 to 100,CC(C)CC(=O)N[C@@H](CCC(=O)O)C(=O)N[C@H](C(=O)N[C@@H](Cc1c[nH]cn1)C(=O)N[C@H](C(=O)N1CCC[C@H]1C(=O)N[C@H]1CSSC[C@@H](C(=O)N(C)[C@@H](CCCCNC(=O)COCCOCCNC(=O)COCCOCCNC(=O)[C@H](CN)NC(=O)CCCCCCCCCCCCCCCCC(=O)O)C(=O)N[C@H](CC(=O)N[C@@H](CCN)C(N)=O)Cc2ccccc2)NC1=O)C(c1ccccc1)c1ccccc1)[C@@H](C)O [compound 264] (Isovaleryl-ETH[Dip]PCC[NMeK]([AEEA-AEEA-Dap-C18 diacid])[β3hF][Dab]-NH2; disulfide 6-7),–
> 500,> 500,CC(C)CC(=O)N[C@@H](CCC(=O)O)C(=O)N[C@H](C(=O)N[C@@H](Cc1cnc2ccccc2c1)C(=O)N[C@H](C(=O)N1CCC[C@H]1C(=O)N[C@H]1CSSC[C@@H](C(=O)N(C)[C@@H](CCCCNC(=O)COCCOCCNC(=O)COCCOCCNC(=O)[C@H](CN)NC(=O)CCCCCCCCCCCCCCCCC(=O)O)C(=O)N[C@H](CC(=O)N[C@H](CCCCN)C(N)=O)Cc2ccccc2)NC1=O)C(c1ccccc1)c1ccccc1)[C@@H](C)O [compound 296] (Isovaleryl-ET[Ala(quinolin-3-yl)][Dip]PCC[NMeK]([AEEA-AEEA-Dap-C18 diacid])[β3hF][dK]-NH2; disulfide 6-7),–
10 to 100,10 to 100,CC(C)CC(=O)N[C@@H](CCC(=O)O)C(=O)N[C@H](C(=O)N[C@@H](Cc1c[nH]cn1)C(=O)N[C@H](C(=O)N1CCC[C@H]1C(=O)N[C@H]1CSSC[C@@H](C(=O)N(C)[C@@H](CCCCNC(=O)COCCOCCNC(=O)COCCOCCNC(=O)[C@H](CN)NC(=O)CCCCCCCCCCCCCCCCC(=O)O)C(=O)N[C@H](CC(=O)N[C@H](C(N)=O)C(C)(C)C)Cc2ccccc2)NC1=O)C(c1ccccc1)c1ccccc1)[C@@H](C)O [compound 290] (Isovaleryl-ETH[Dip]PCC[NMeK]([AEEA-AEEA-Dap-C18 diacid])[β3hF][Tle]-NH2; disulfide 6-7),–
10 to 100,10 to 100,CC(C)CC(=O)N[C@@H](CCCC(=O)O)C(=O)N[C@H](C(=O)N[C@@H](Cc1cccnc1)C(=O)N[C@H](C(=O)N1CCC[C@H]1C(=O)N[C@H]1CSSC[C@@H](C(=O)N(C)[C@@H](CCCCNC(=O)COCCOCCNC(=O)COCCOCCNC(=O)[C@H](CN)NC(=O)CCCCCCCCCCCCCCCCC(=O)O)C(=O)N[C@H](C(=O)N[C@H](CCCCN)C(N)=O)C(c2ccccc2)c2ccccc2)NC1=O)C(c1ccccc1)c1ccccc1)[C@@H](C)O [compound 242] (Isovaleryl-[Aad]T[3Pal][Dip]PCC[NMeK]([AEEA-AEEA-Dap-C18 diacid])[Dip][dK]-NH2; disulfide 6-7),–

# More lines, now with the values behind:
Structure (SMILES),DC50 (ferroportin [1]; [3]) [nM],IC50 (ferroportin [2]; [4]) [nM],also measured
CC[C@H](C)[C@H](NC(=O)[C@@H]1CSSC[C@H](NC(=O)[C@@H](NC(=O)[C@H](Cc2c[nH]cn2)NC(=O)[C@@H](NC(=O)[C@H](CCC(=O)O)NC(=O)CC(C)C)[C@@H](C)O)C(c2ccccc2)c2ccccc2)C(=O)N1)C(=O)N[C@@H](CCCCNC(=O)COCCOCCNC(=O)COCCOCCNC(=O)CCCCCNC(=O)CCCCCCCCCCCCCCCCC(=O)O)C(=O)N[C@H](CC(=O)N[C@H](CCCCN)C(N)=O)Cc1ccccc1 [Compd 21] (Isovaleryl-ETH[Dip]CCIK([AEEA-AEEA-Ahx-C18 diacid])[β3hF][dK]-NH2; disulfide 5-6),–,–,DC50 (ferroportin [1]; [5]): 10 to 100 nM; IC50 (ferroportin [2]; [6]): 10 to 100 nM
CCCCCCCCCCCCCCCC(=O)NCCCCCC(=O)NCCCC[C@@H](C(=O)NCC(c1ccccc1)c1ccccc1)N(C)C(=O)[C@@H]1CSSC[C@H](NC(=O)[C@@H]2CCCN2C(=O)[C@@H](NC(=O)[C@H](Cc2cnc[nH]2)NC(=O)[C@@H](NC(=O)[C@H](CCC(=O)O)NC(=O)CC(C)C)[C@@H](C)O)C(c2ccccc2)c2ccccc2)C(=O)N1 [compound 163] (Isovaleryl-ETH[Dip]PCC[NMeK]([Ahx-Palmitoyl])-NHCH2CHPh2; disulfide 6-7),–,–,"DC50 (ferroportin [1]; Table 6E, ferroportin-GFP internalization/degradation, at least 18 hours incubation): 10 to 100 nM; IC50 (ferroportin [2]; [7]): 1 to 10 nM"
CC[C@H](C)[C@@H]1NC(=O)[C@@H](NC(=O)[C@@H]2CCCN2C(=O)[C@@H](NC(=O)[C@H](Cc2c[nH]cn2)NC(=O)[C@@H](NC(=O)[C@H](CCC(=O)O)NC(=O)CC(C)C)[C@@H](C)O)C(c2ccccc2)c2ccccc2)CSSC[C@@H](C(=O)N[C@H](CC(=O)N[C@@H](CCCCNC(=O)COCCOCCNC(=O)COCCOCCNC(=O)CC[C@H](NC(=O)CCCCCCCCCCCCCCCCC(=O)O)C(=O)O)C(=O)N[C@H](CCCCN)C(N)=O)Cc2ccccc2)NC1=O [Compd 36] (Isovaleryl-ETH[Dip]PCIC[β3hF]K([AEEA-AEEA-γGlu-C18 diacid])[dK]-NH2; disulfide 6-8),–,–,DC50 (ferroportin [1]; [5]): 10 to 100 nM; IC50 (ferroportin [2]; [6]): 10 to 100 nM
COC(=O)CC[C@H](NC(=O)CC(C)C)C(=O)N[C@H](C(=O)N[C@@H](Cc1c[nH]cn1)C(=O)N[C@H](C(=O)N1CCC[C@H]1C(=O)N[C@H]1CSSC[C@@H](C(=O)N(C)[C@@H](CCCCNC(=O)CCCCCNC(=O)C[N+](C)(C)CCNC(=O)CCCCCCCCCCCCCCCCC(=O)O)C(=O)N[C@H](C(=O)N[C@H](CCCCN)C(N)=O)C(c2ccccc2)c2ccccc2)NC1=O)C(c1ccccc1)c1ccccc1)[C@@H](C)O [compound 232] (Isovaleryl-E(OMe)TH[Dip]PCC[NMeK]([Ahx-X1])[Dip][dK]-NH2; disulfide 6-7),10 to 100,10 to 100,–
CC(C)CC(=O)N[C@H]1CCC(=O)NCCCC[C@H](C(N)=O)NC(=O)[C@H](C(c2ccccc2)c2ccccc2)NC(=O)[C@H](CCCCNC(=O)CCCCCNC(=O)C[N+](C)(C)CCNC(=O)CCCCCCCCCCCCCCCCC(=O)O)N(C)C(=O)[C@@H]2CSSC[C@H](NC(=O)[C@@H]3CCCN3C(=O)[C@H](C(c3ccccc3)c3ccccc3)NC(=O)[C@H](Cc3cnc[nH]3)NC(=O)[C@H]([C@@H](C)O)NC1=O)C(=O)N2 [compound 193] (Isovaleryl-ETH[Dip]PCC[NMeK]([Ahx-X1])[Dip][dK]-NH2; lactam 1-10; disulfide 6-7),–,–,IC50 (ferroportin [2]; [7]): 10 to 100 nM
CC(C)CC(=O)N[C@@H](CCC(=O)O)C(=O)N1CCC[C@H]1C(=O)N[C@@H](Cc1c[nH]cn1)C(=O)N[C@H](C(=O)N1CCC[C@H]1C(=O)N[C@H]1CSSC[C@@H](C(=O)N(C)[C@@H](CCCCNC(=O)CCCCCNC(=O)C[N+](C)(C)CCNC(=O)CCCCCCCCCCCCCCCCC(=O)O)C(=O)N[C@H](C(=O)N[C@H](CCCCN)C(N)=O)C(c2ccccc2)c2ccccc2)NC1=O)C(c1ccccc1)c1ccccc1 [compound 188] (Isovaleryl-EPH[Dip]PCC[NMeK]([Ahx-X1])[Dip][dK]-NH2; disulfide 6-7),–,–,IC50 (ferroportin [2]; [7]): > 500 nM
